Data taken from patent US10537603B2, “Pharmaceutical composition for preventing or treating angioedema, containing extract of peony root or mixture of peony root and licorice as active ingredient” (Korea Institute of Oriental Medicine, priority 2014, dated 2020).

Key:
[1] = system: advanced glycation end product (AGE) generation; test: Inhibition of advanced glycation end product (AGE) generation, BSA with fructose/glucose, fluorescence; assay type: biochemical; conditions: BSA 10 mg/ml, 0.2 M fructose + 0.2 M glucose, 37° C., 7 days
Procedure: To determine the inhibitory effect of advanced glycation end product generation of the peony root extract, or the mixed extract of peony root and licorice, the present inventors used 10 mg/ml of bovine serum albumin (Sigma, St. Louis, Mo., USA) dissolved in 50 mM phosphate buffer (pH 7.4) as a protein source and a mixed liquid of 0.2 M fructose and 0.2 M glucose as a sugar source, respectively.
The extracts of <Example 1> and a positive control group (aminoguanidine) were dissolved in 30 μl of 0.2% DMSO, and then again dissolved in 15% tween 80. The protein source, the sugar source and the extracts of the present invention as prepared above were mixed and compounded to a total of 1 ml, and then each cultured at 37° C. for 7 days to allow for glycation. At this time 0.02% azide (sodium azide) was added thereto to prevent from generating bacteria during the culture period. After the culture fluorescence (spectrofluorometric detector; Bio-TEK, Synergy HT, USA; Ex: 350 nm; Em: 450 nm) was measured and then calculated with Equation 1 below, with showing the result in Table 2.

[2] = system: MNU-induced animal models; test: Comparison of CJG30R and paeoniflorin in MNU-induced age-related macular degeneration model (ONL thickness); assay type: in vivo, C57BL/6 mice; conditions: CJG30R 100 mg/kg, PF 6.5 mg/kg oral
Procedure: The 6-week-old male C57BL/6 mice were used after acclimatization for 1 week. To induce damage and degeneration of photoreceptor cells among morphological changes of retinal tissues appearing in macular degeneration, 1% (0.05% acetic acid) N-methyl-N-nitrosourea (MNU, Sigma, USA) was intraperitoneally injected to the 7-week-old male C57BL/6 mice (60 mg/kg). The same amount of 0.05% acetic acid was intraperitoneally administered to the normal group. CJG30R (100 mg/kg) and PF-6.6 (6.5 mg/kg) as test drugs were suspended and compounded in 0.5% sodium carboxymethyl cellulose (CMC), orally administrated one day before MNU administration, and orally administrated once per day for 7 days after MNU administration. The same amount of 0.5% CMC was orally administrated to the normal group and the MNU-induced group. After completing administration of the test drugs, eyes were enucleated by carrying out an autopsy on the mice, and then mounted on 10% neutralized formalin for one day and embedded in paraffin to prepare slide sections. Slide sections were stained with Hematoxylin & Eosin (H & E) and observed under an optical microscope. The damage and degeneration of the photoreceptor cells were measured and evaluated by thickness changes in the outer nuclear layer of the retinal tissues.

[3] = system: human retinal pigment epithelial cell lines (ARPE-19); conditions: ARPE-19, Molecular Vision 2011; 17: 3512-3522; cited from earlier work

IC50, inhibitory effect of advanced glycation end product generation [1] | SMILES | Effect on outer nuclear layer damage as compared to the MNU administration group [2] | ONL thickness (AU) ([2]; MNU 60 mg/kg i.p., NOR 1.99 ± 0.21, MNU 0.92 ± 0.17) | ONL thickness (%) ([2]; NOR = 100, MNU = 0) | Effect on cell death due to H2O2 and oxidative stress [3]
81.38 ± 2.70 mg/L | N=C(N)NN [Aminoguanidine, aminoguanidine] |  |  |  | 
 | C[C@@]12C[C@@]3(O)O[C@@H](O1)[C@]1(COC(=O)c4ccccc4)[C@H]3C[C@@]12O[C@@H]1O[C@H](CO)[C@@H](O)[C@H](O)[C@H]1O [PF-6.5, paeoniflorin] | no effect at all | 0.96 ± 0.17 AU | 3.52 ± 16.11% | inhibitory effects
